As usually defined, the IC50 is the point on the concentration scale where inhibition reaches its midpoint.

Chain of Protein-arginine deiminase type-4 (Q9UM07 whole entry): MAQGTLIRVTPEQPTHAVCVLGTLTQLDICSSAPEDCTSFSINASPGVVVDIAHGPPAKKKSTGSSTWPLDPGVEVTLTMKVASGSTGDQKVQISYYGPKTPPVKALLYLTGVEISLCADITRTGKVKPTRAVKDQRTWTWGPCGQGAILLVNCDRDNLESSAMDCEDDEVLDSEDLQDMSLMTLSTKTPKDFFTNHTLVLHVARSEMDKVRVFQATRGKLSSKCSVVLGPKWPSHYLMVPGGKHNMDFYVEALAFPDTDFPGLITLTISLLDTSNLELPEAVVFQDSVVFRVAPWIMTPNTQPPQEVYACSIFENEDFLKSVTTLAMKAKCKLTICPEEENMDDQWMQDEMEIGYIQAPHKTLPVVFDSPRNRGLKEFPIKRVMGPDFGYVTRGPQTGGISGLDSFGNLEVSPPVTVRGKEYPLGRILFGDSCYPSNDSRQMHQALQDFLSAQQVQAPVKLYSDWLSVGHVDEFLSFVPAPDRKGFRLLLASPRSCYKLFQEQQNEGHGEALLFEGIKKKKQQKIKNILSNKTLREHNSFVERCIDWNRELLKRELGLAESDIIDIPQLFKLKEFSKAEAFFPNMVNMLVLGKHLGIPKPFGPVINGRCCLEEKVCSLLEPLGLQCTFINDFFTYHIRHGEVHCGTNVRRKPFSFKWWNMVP

For the assay, the target named is Protein-arginine deiminase type-4 (Homo sapiens, UniProt Q9UM07). The experiment in a line: In Vitro PAD4 BAEE Biochemical Assay. As for the experimental part:
One hundred nanoliters of test compounds dissolved in DMSO at various concentrations were dispensed into a 384-well black OptiPlate using a Labcyte Echo instrument. Ten microliters of a solution of recombinant PAD4 and calcium chloride diluted in PAD4 assay buffer (50 mM MOPS [3-(N-morpholino) propanesulfonic acid], pH 7.6; 50 mM sodium chloride; 0.05% Tween-20; 2 mM dithiothreitol) was added to the compound-containing plate and was incubated for 30 minutes at 25° C. Ten microliters of a solution of BAEE (Sigma-Aldrich #B4500) diluted in PAD4 assay buffer was then added to start the reaction. Final concentrations were 5 nM PAD4, 2 mM calcium chloride, and 3 mM BAEE. The reaction mixture was incubated at 25° C. for 2 hours and was stopped with the addition of 10 microliters of a solution of 75 mM EDTA (Ethylenediaminetetraacetic acid) in PAD4 assay buffer. Thirty microliters of detection solution (5 mM o-phthalaldehyde, 50 mM MOPS [3-(N-morpholino) propanesulfonic acid], pH 7.6; 50 mM sodium chloride; 0.05% Tween-20; 5 mM dithiothreitol) was then added and the reaction was incubated for 1 hour at 25° C.
Compound `COc1cc(C(=O)N2[C@H]3CC[C@@H]2[C@H](N)C3)cc2nc(-c3cc4ccc([C@@H](C)NC(=O)C56CC(F)(C5)C6)c(F)c4n3CC3CC3)n(C)c12` [US11878965, Example 144] returned a 50% inhibitory concentration (IC50) of 229 nM. The compound `COc1cc(C(=O)N2[C@H]3CC[C@@H]2[C@H](N)C3)cc2nc(-c3cc4ccc([C@@H](C)NC(=O)N5CC(F)(F)C5)nc4n3CC3CC3)n(C)c12` [US11878965, Example 238] yielded an IC50 of 28.7 nM. As for `COc1cc(C(=O)N2C[C@H](N)CC[C@@H]2C)cc2nc(-c3cc4ccc(-c5cccnc5-c5cccnc5Cl)nc4n3CC3CC3)n(C)c12` [US11878965, Example 258], the IC50 is 245 nM. Next, `COc1cc(C(=O)N2C[C@H](N)CC[C@@H]2C)cc2nc(-c3cc4ccc(N5C(=O)CC[C@H]5C)nc4n3CC3CC3)n(C)c12` [US11878965, Example 284]: 1240 nM; `COc1cc(C(=O)N2C[C@H](N)[C@@H]3CC[C@H]2C3)cc2nc(-c3cc4ccc([C@@H](C)NC(=O)c5cccnc5Cl)nc4n3CC3CC3)n(C)c12` [US11878965, Example 302]: 68.4 nM.

The record behind these values is BindingDB's records for patent US11878965 (Gilead Sciences, 2024).
